Positions of bridges follow the written chain, without caps; N, C: chain ends. Non-standard residues stand in square brackets, D forms with d. Residues, ends and D or L forms follow the SMILES beside them. Chains are numbered I, II in the order given. Gly(N-piperonyl) = O=C(O)CNCc1ccc2c(c1)OCO2; N(4-MeOBn)Gly = COc1ccc(CNCC(=O)O)cc1; Nrpe = C[C@@H](NCC(=O)O)c1ccccc1; Nlys = NCCCCNCC(=O)O; βAla = NCCC(=O)O
Experiments:
[1] = Propidium iodide test of cell lysis; assay type: cell-based; settings: non-permeabilized cells
[2] = system: tumor vascular endothelium of subcutaneous HCC4017 tumors; assay: In vivo vascular disrupting effect; design: species or system mice; settings: 20 μg i.v., 24 hours
Protocol: The in vivo vascular disrupting effects of PPS1-D2 were explored. Mice bearing HCC4017 tumors growing subcutaneously were injected i.v. with 20 μg of PPS1-D2. Twenty four hours later, the tumors were removed, cryosectioned, and stained for CD31 to detect vascular endothelium. […] This dose can be calculated to give an initial blood concentration that is roughly 10-fold higher than needed for maximal lysis of PS-expressing cell in vitro.

[3] = Toxicity of PPS1-D2 to mice; assay type: in vivo
[4] = system: HCC4017, H460, HCC95, H1693, H1395 lung cancer cell lines; assay: Cell staining with Hoechst 33342 and propidium iodide (membrane integrity); assay type: cell-based, human; settings: 0.005% Benzalkonium chloride
Protocol: It was evaluated how PPS1D1 affects viability of these PS expressing cancer cell lines. While there are difficulties of narrowing down the exact mechanism of action of a compound targeting cell membrane lipids, whether PPS1D1 has any effect on cell membrane integrity was evaluated. Cells were treated with standard DNA staining dyes Propidium iodide (PI) and Hoechst 33342. While both bind DNA, only Hoechst is cell permeable. Therefore, when treating live cells only Hoechst will stain the nucleus while PI will stain the nucleus only if the cell membrane integrity is compromised. All the lung cancer cell lines and normal HBEC30KT cells were treated with these dyes in the presence of PPS1D1 (at 1 μM and 20 μM) or a control compound PC462D1 at 20 μM and evaluated fluorescence by microscopy without fixation. […] These observations indicate that 20 μM PPS1D1 is selectively cytotoxic to PS-positive lung cancer cells.
10,000 cells of HCC4017, H460, HCC95, H1693,H1395 and HBEC30KT were plated on chamber slides (Lab-Tek, Thermo Fisher, MA). On second day, cells were treated with PPS (1 μM and 20 μM), control PC462D1 (20 μM) and 0.005% Benzalkonium chloride (BAC) in RPMI medium with 10% FBS containing 3% BSA (KSFM media with 3% BSA for HBEC30KT). Chamber slides were washed with PBS three times. Cells were then stained with Hoechst 33342 (10 μg/ml) for 30 min in dark. Chamber slides were washed with 3× PBS. Cells were then stained with propidium iodide (1 mg/ml) for 15 mins. Cells were washed with 3× PBS and imaged using Fluorescence Microscope (Olympus BX-53).

H460 xenografts = assay: Inhibition of growth of H460 lung cancer xenograft; assay type: in vivo, mice
Protocol: Whether PPS1D1 would inhibit tumor growth in a murine model was examined. H460 cells were implanted in nude mice. Tumors were allowed grow until it reach […]. These xenografts were then treated with a daily dose of […] in four different groups that consist of PPS1D1 alone, docetaxel alone, PPS1D1 and docetaxel together or with the control peptoid (PC462D1) alone. Docetaxel is a standard chemotherapeutic treatment for non-small cell carcinoma. The activity of PPSD1 and its ability to work as a combination treatment were examined. […] This effect was extremely potent and the tumor growth was completely controlled. […] It has been reported that chemotherapy and radiation therapy increase the PS flipping in tumor microenvironment. Therefore, Docetaxel might have helped improve binding of PPS1D1 on cancer cell surface that is now displaying an increased amount of PS to be targeted. After the standard chemotherapy and radiation therapy, the target PS is highly abundant for the drug to recognize and attack.
The effect of PPS1D1 on the growth of H460 xenografts implanted in NOD/SCID immunodeficient mice was examined. Immunodeficient animals were chosen to facilitate the growth of human tumor xenografts. […] Therapy with a control peptoid (PC462D1, 0.25 mg/mouse, 3×/week ip), PPS1D1 (0.25 mg/mouse, 3×/week ip), docetaxel (0.5 mg/kg, 2×/week, ip) or the combination of PPS1D1+docetaxel was initiated when tumors were ˜100 mm3 in volume. […] Tumor tissue was harvested after 4 weeks of therapy and assessed for cell proliferation and apoptosis by immunohistochemistry. […] It is clear from studies with bavituximab that standard chemotherapy (e.g., taxanes) increases the exposure of PS resulting in elevated binding of the PS targeting agent. A similar mechanism can underlie the enhanced activity of docetaxel and PPS1D1.
All animals were housed in a pathogen-free facility with continuous access to food and water. Mice were purchased from the core breeding facility at UT Southwestern. Six to eight-week-old female NOD/SCID mice were injected with 2.5×10^6 H460 cells subcutaneously. Tumor volume was followed by twice weekly measurements with Vernier calipers. Animals were randomized and treatment was initiated with mean tumor volume of each group was 100 mm3. Four different groups used were: (I) control PC462D1, (II) PPS1D1, (III) docetaxel, and (IV) combination of PPS1D1+docetaxel. Mice (n=8/group) were treated with PPS1D1 or PC462D1 in saline by ip injection at a dose of 0.25 mg/mouse, 3 times per week on a M-W-F schedule. Docetaxel from the UT Southwestern Clinical pharmacy was diluted in saline and delivered 2×/week ip at 5 mg/kg. Animals were sacrificed after 4 weeks of therapy. Tumor tissue was snap frozen, sectioned and stained with antibodies specific for phospho-Histone H3 (Millipore, #06-570) and cleaved caspase 3 (Cell Signaling, #9664). Reactivity was developed with appropriate fluorescently conjugated secondary antibodies (Jackson ImmunoResearch) and mounted with Prolong Gold with DAPI (Invitrogen), coverslipped and evaluated by fluorescence microscopy.

breast cancer = settings: cited from earlier work
[5] = complexes with beta2-glycoprotein 1; cited from earlier work
[6] = system: non-small cell lung cancer (NSCLC); settings: in combination with carboplatin and paclitaxel (11/17); cited from earlier work
[7] = Annexin V competition on lipid ELISA; assay type: binding; settings: ELISA-like, 100 nM Annexin V
Protocol: (§1) Multiple competition assays were conducted to determine whether PPS1 (or PPS1D1) competes with Annexin V, a known PS binding agent. […] Competition between Annexin V and PPS1 for binding to PS in liposomes using flow cytometry was evaluated. […] However, PPS1 directly binds PS. Also, PS-ligand binding may be much more complex than that of a typical protein-ligand binding. Typical protein ligand binding occurs via a defined binding pocket, which facilitates clear competition by other ligands that interact with the same binding pocket. But PS is a lipid in a fluid membrane, which has no defined macromolecular structure further complicating possible binding modes.
Lipids (Avanti Polar Lipids) were dissolved in chloroform at 10 μg/ml and coated on to Immulon 1B “U” bottom microtiter plates (ThermoFisher, MA). Chloroform was evaporated at room temp (in the hood) and plates were blocked with 200 μl of 1% BSA for 1 hour. Plates were washed with 3× PBS. Biotinylated PPS1D1 dissolved in blocking buffer was added and incubated for 1 hour at room temp. Plates were washed with 3× PBS and 2× Annexin binding buffer. […] Binding was detected with streptavidin-HRP (1:1000 in blocking buffer) followed by 100 μl OPD (Sigma-Aldrich, MO). The reaction was stopped with 100 μl 0.18M H2SO4 and absorbance was read at 490 nm using the spectrophotometer (Spectramax i3, Molecular Devices, CA).

[8] = Annexin V / PPS1 competition on liposomes by flow cytometry; assay type: binding; settings: unlabeled Annexin V 50 nM
Protocol: as §1
Unlabeled Annexin V vs FITC-PPS1 competition. 0.1 mM liposomes (85 mol % POPC, 15 mol % DOPS) were incubated with incubated with 50 nM Annexin V in Binding Buffer (0.01 M HEPES/NaOH (pH 7.4), 0.14 M NaCl, and 2.5 mM CaCl2) with 3% BSA for lhour. FITC PPS1 was added and the solution was incubated for 1 hour at room temperature. The binding of FITC-PPS1 to liposomes was analyzed by BD Accuri™ C6 flow cytometer (Becton-Dickinson, NJ). All data were analyzed using BDAccuriC6 software.
Unlabeled PPS1 vs FITC-Annexin V competition. […] The binding of FITC-Annexin V to liposomes was analyzed by BD Accuri™ C6 flow cytometer (Becton-Dickinson, NJ). All data were analyzed using BDAccuriC6 software.

[9] = On-bead competition assay; assay type: binding; settings: Annexin V at 10, 50 and 100 nM
Protocol: Experimental procedure 12: On-bead competition assay. PPS1 and PC462 were synthesized on Tentagel beads. Organic solvent was removed and the beads were washed with 3 times with PBS. The beads were then incubated with PBS containing 3% BSA for 1 hour at room temperature. These beads were then incubated with 0.1 mM liposomes (84 mol % POPC, 15 mol % DOPS and 1 mol % NBD) for 2 hours at room temperature. Beads containing liposomes were the washed with binding buffer 3 times. […] Beads were then washed with binding buffer and imaged using fluorescence Microscope (Olympus BX-53).

[10] = calcium-dependent; cited from earlier work

Question: With COc1ccc(CN(CC(=O)N(CCCCN)CC(=O)N[C@@H](CCCCN)C(=O)N[C@H](CCCCN)C(=O)N[C@@H](CCSC)C(=O)NCCC(=O)NCCCC[C@H](NC(=O)CCNC(=O)[C@H](CCSC)NC(=O)[C@@H](CCCCN)NC(=O)[C@H](CCCCN)NC(=O)CN(CCCCN)C(=O)CN(Cc2ccc(OC)cc2)C(=O)CN(C(=O)CN(Cc2ccc3c(c2)OCO3)C(=O)CN[C@H](C)c2ccccc2)[C@H](C)c2ccccc2)C(N)=O)C(=O)CN(C(=O)CN(Cc2ccc3c(c2)OCO3)C(=O)CN[C@H](C)c2ccccc2)[C@H](C)c2ccccc2)cc1 [PPS1-D2] (I: H-[Nrpe][Gly(N-piperonyl)][Nrpe][N(4-MeOBn)Gly][Nlys]K[dK]M[βAla]K-NH2 / II: H-[Nrpe][Gly(N-piperonyl)][Nrpe][N(4-MeOBn)Gly][Nlys]K[dK]M[βAla]; amide I:10-II:C; N-terminus assumed) as the molecule, how does the “nuclear staining by propidium iodide” value [1] read?
Answer: nuclear staining happens only when PPS1-D2 is treated

Question: And the “disruption of tumor vascular endothelium (CD31)” value [2]?
Answer: disrupted tumor endothelium

Question: What about the signs of toxicity ([3]; mice treated with 50 μg) of the same molecule?
Answer: no signs of toxicity

Question: And the MTD ([3]; mouse, in vivo)?
Answer: 2 to 4 mg/kg

Question: For “Benzalkonium chloride [BAC, reference compound]”, which “PI staining of cells” value [4] is on record?
Answer: PI-positive nuclei

Question: Which results are given for CC(=O)O[C@@]12CO[C@@H]1C[C@H](O)[C@@]1(C)C(=O)[C@H](O)C3=C(C)[C@@H](OC(=O)[C@H](O)[C@@H](NC(=O)OC(C)(C)C)c4ccccc4)C[C@@](O)([C@@H](OC(=O)c4ccccc4)[C@H]21)C3(C)C [docetaxel, reference compound]?
Answer: tumor growth (tumor volume vs days post therapy initiation) (H460 xenografts; H460 in NOD/SCID mice, peptoids 0.25 mg/mouse 3x/week ip, docetaxel 0.5 mg/kg 2x/week ip): slowed tumor growth; tumor size reduction (H460 xenografts; H460 in nude mice, daily dose of 0.5 mg/mL): equally effective in reducing the size of the tumors; response rate (breast cancer; docetaxel alone, separate study): 41%

Question: Which Kd [5] does the source give for “Bavituximab: human-mouse chimeric antibody targeting PS via beta2-glycoprotein 1” here?
Answer: 0.4 nM

Question: And the objective response (breast cancer; combination of bavituximab and docetaxel, phase II (28/46))?
Answer: 61%

Question: And the objective response [6]?
Answer: 65%

Question: With “Annexin V: 35.8 kDa protein that binds PS in a calcium-dependent manner” as the molecule, how does the “competition with PPS1D1 for binding to PS” value [7] read?
Answer: did not compete

Question: What about the “competition with FITC-PPS1 binding to liposomes” value [8] of the same molecule?
Answer: did not compete

Question: And the “removal of liposomes from PPS1 beads” value [9]?
Answer: None of these conditions were able to remove liposomes from beads

Question: What about the “affinity for PS” value [10] of the same molecule?
Answer: nanomolar affinity

From US10849875B2, “Cancer specific lipid targeted peptidomimetics” (University of Houston System, priority 2015, dated 2020)
